Structures can show the parent of a compound that is named as a salt. Where two headings read alike, the source gives them in different places. Numbered stars: 1 amine (or outer) side, 2 acyl side, 3 side chain; on linkers, the order of the positions; unused ones are H or OH. Bridge positions count the residues as written; N and C are the ends. Square brackets hold non-standard residues; d marks the D form. Peptide text beside a SMILES is read from it. I, II: the chains in the order shown. Actinocin(9to1) = Cc1c2oc3c(C)ccc(C(=O)[*:1])c3nc-2c(C(=O)[*:2])c(N)c1=O; NMeV = CN[C@H](C(=O)O)C(C)C; Sar = CNCC(=O)O
Assays:
P. falciparum Dd2-HLH [1] = assay: microbe, parasite or virus in culture; format: cell-based, Plasmodium falciparum
[2] = test system: P. berghei-luciferase sporozoites; assay: microbe, parasite or virus in culture; format: cell-based, Plasmodium berghei
in vitro = settings: human
P. falciparum Dd2-HLH [3] = assay: microbe, parasite or virus in culture; format: cell-based, Plasmodium falciparum; remark: listed apart in the source
[4] = Mammalian cell cytotoxicity assay, HepG2 (CellTiter-Glo, 72 h); settings: human
HEK293T cells [5] = assay: Mammalian cell cytotoxicity assay, HEK293T (CellTiter-Glo, 72 h); settings: read-out: HEK CC50
HEK293T cells [6] = test system: HEK293T cells
[7] = Mammalian cell cytotoxicity assay, HEK293T (CellTiter-Glo, 72 h); settings: human, HEK293T cells
[8] = Plasmodium berghei, liver-stage parasites, 48 h in culture, read-out: Liver 48 h EC50
[9] = Plasmodium falciparum, DD2, 72 h, read-out: Blood stage 72h EC50
[10] = Plasmodium berghei, HepG2, liver-stage parasites, 48 hours in culture, read-out: Liver stage 48h EC50
[11] = Plasmodium falciparum, DD2, 48 h, read-out: Blood stage 48h EC50
[12] = Plasmodium falciparum, DD2, P. falciparum blood-stage parasites, 72 hours in culture, read-out: Blood stage 72h EC50
[13] = P. falciparum blood-stage parasites, 72 hours in culture, read-out: Blood stage 72h EC50
[14] = liver-stage parasites, 48 hours in culture, read-out: Liver stage 48h EC50
[15] = P. falciparum blood-stage parasites, 48 hours in culture, read-out: Blood stage 48h EC50

Compound	CC50 (in vitro) [nM]	EC50 (P. falciparum Dd2-HLH [1]; [9]) [nM]	EC50 [2, 10] [nM]	EC50 (P. falciparum Dd2-HLH [3]; [11]) [nM]	EC50 (P. falciparum Dd2-HLH [1]; [13]) [nM]	EC50 [2, 14] [nM]	EC50 (P. falciparum Dd2-HLH [3]; [15]) [nM]	further results
Cc1c2oc3c(C)ccc(C(=O)N[C@@H]4C(=O)N[C@H](C(C)C)C(=O)N5CCC[C@H]5C(=O)N(C)CC(=O)N(C)[C@@H](C(C)C)C(=O)O[C@@H]4C)c3nc-2c(C(=O)N[C@@H]2C(=O)N[C@H](C(C)C)C(=O)N3CCC[C@H]3C(=O)N(C)CC(=O)N(C)[C@@H](C(C)C)C(=O)O[C@@H]2C)c(N)c1=O [Dactinomycin, reference compound] (I: T[dV]P[Sar][NMeV] / II: T[dV]P[Sar][NMeV]; ester I:1-I:C, II:1-II:C; linker I:N-II:N via Actinocin(9to1))	9							EC50 (P. falciparum Dd2-HLH [1]; Plasmodium falciparum, DD2, blood-stage parasites, 72 h in culture, read-out: Blood stage 72 h EC50): 8 nM; EC50 [2, 8]: 73 nM; EC50 (P. falciparum Dd2-HLH [3]; Plasmodium falciparum, DD2, blood-stage parasites, 48 h in culture, read-out: Blood stage 48 h EC50): 3 nM; CC50 at 72 h [4]: 3 nM
NC(=O)C(c1ccccc1)(c1ccccc1)[C@@H]1CCN(CCc2ccc3c(c2)CCO3)C1 [Darifen/Acin Hydrobromide]	> 9950	324	> 10000	1430				CC50 at 72 h [4]: > 9990 nM
C[C@@H]1C[C@@H]([C@H](O)CC2CC(=O)NC(=O)C2)C(=O)[C@@H](C)C1 [Cycloheximide]	759		109					EC50 (P. falciparum Dd2-HLH [1]; [12]): 301 nM; EC50 (P. falciparum Dd2-HLH [3]; Plasmodium falciparum, DD2, P. falciparum blood-stage parasites, 48 hours in culture, read-out: Blood stage 48h EC50): 178 nM
CS[C@H]1SC[C@H]2C(=O)N(C)[C@@H](C(C)C)C(=O)OC[C@@H](NC(=O)c3cnc4ccccc4n3)C(=O)N[C@@H](C)C(=O)N(C)[C@@H]1C(=O)N(C)[C@@H](C(C)C)C(=O)OC[C@@H](NC(=O)c1cnc3ccccc3n1)C(=O)N[C@@H](C)C(=O)N2C [Echinomycin]	1		2					EC50 (P. falciparum Dd2-HLH [1]; [12]): 3 nM; CC50 at 72 h [4]: 1 nM
Cc1ncc(NC(=O)c2ccc(CN3CCN(C)CC3)c(C(F)(F)F)c2)cc1Nc1nccc(-c2cccnc2)n1 [Flumatinib mesylate]					213	> 10000	85	CC50 (HEK293T cells [5]; HEK293T cells): > 9950 nM
Cc1ccc(CCCO)c(NCc2ccc3nc(NCCCN4CCOCC4)n(Cc4nc(C)ccc4O)c3c2)c1 [TMC-353121]					650	> 10000	319	CC50 (HEK293T cells [5]; HEK293T cells): > 9950 nM
Cc1[nH]c2ccccc2c1CCNCc1ccc(/C=C/C(=O)NO)cc1 [Panobinostat Lactate]					51	131	20	CC50 (HEK293T cells [5]; HEK293T cells): 78 nM
COc1ccc(C)cc1NC(=O)Nc1nc2ccc(Nc3ncnc4cc(OCCCN5CCN(C)CC5)c(OC)cc34)cc2s1 [Compound 4SC-203]					729	3330		CC50 (HEK293T cells [6]): 3000 nM; CC50 (HepG2 cells): 4690 nM
CC(=O)[C@]1(O)Cc2c(O)c3c(c(O)c2[C@@H](O[C@H]2C[C@H](N)[C@H](O)[C@H](C)O2)C1)C(=O)c1ccccc1C3=O [Idarubicin]	36	302	843	1870				
CCNCc1cncc(-c2ccc3[nH]nc(-c4nc5c(F)cc(F)cc5[nH]4)c3c2)c1C [AG-024322]					423	2990		CC50 (HEK293T cells [6]): 145 nM; CC50 (HepG2 cells): 112 nM
COc1cc2c(Nc3ccc(NC(=O)c4ccccc4)cc3)ncnc2cc1OCCCN1CCOCC1 [ZM447439]					643	4330	452	CC50 (HEK293T cells [5]; HEK293T cytotoxicity): > 9950 nM
O=C1c2ccccc2-n2c1nc1ccccc1c2=O [Tryptanthrin]	> 9950	562	41	737				
Cc1cc2c(C(N)=O)cccc2n1-c1nc2c(c(NCc3ccccc3)n1)COCC2 [CB-5083]	469	608		233				EC50 ([2]; Plasmodium berghei, HepG2, 48 h, read-out: Liver stage 48h EC50): 540 nM; CC50 at 72 h [4]: 468 nM
COC(=O)C[C@](O)(CCCC(C)(C)O)C(=O)O[C@@H]1C(OC)=C[C@]23CCCN2CCc2cc4c(cc2[C@H]13)OCO4 [Homoharringtonine, reference compound]	32	7						EC50 [2, 8]: 26 nM; EC50 (P. falciparum Dd2-HLH [3]; Plasmodium falciparum, DD2, Hec50, 48 h, read-out: Blood stage 48 h EC50): 6 nM
C[C@@H](Oc1cc(-c2cnn(C3CCNCC3)c2)cnc1N)c1c(Cl)ccc(F)c1Cl [Crizotinib]	> 9950	827	8520	225				
SN-38					358	1010	507	CC50 (HEK293T cells [5]; HEK293T cells): 79 nM
Cc1nc(N2CCN(Cc3ccc(F)cc3)C2=O)sc1C(=O)NCc1cccnc1 [XEN-723]					334	> 10000	158	CC50 (HEK293T cells [5]; HEK293T cells): 57 nM
COc1ccc(C[C@H](N)C(=O)N[C@H]2[C@@H](O)[C@H](n3cnc4c(N(C)C)ncnc43)O[C@@H]2CO)cc1 [Puromycin]		125	840	61				CC50 at 72 h [7]: 1240 nM; CC50 at 72 h ([4]; HepG2 cells): 498 nM
